Results as given in patent publication US20250195645A1, “COMBINATION OF MULTISPECIFIC MOLECULE AND IMMUNE CHECKPOINT INHIBITOR” (DAIICHI SANKYO COMPANY, LIMITED, priority 2022, published 2025).

How the values were obtained:
[1] = test system: human synovial sarcoma cell line SW982; test: In vivo combinatorial effect of NYZ-1010 and doxorubicin, human T cell transfer model; conditions: NSG mice
Experimental: The administration was carried out on Day 41 (NYZ-1010) or on Days 40 and 47 (doxorubicin). Tumor growth inhibition (%) and change from baseline (%) were calculated according to the expressions given below.

[2] = test system: human lung adenocarcinoma cell line NCI-H522; test: In vivo combinatorial effect of NYZ-1010 and durvalumab, human T cell transfer model; conditions: NSG mice
[3] = test system: human lung adenocarcinoma cell line NCI-H522; test: In vivo combinatorial effect of NYZ-1010 and pembrolizumab, human T cell transfer model; conditions: 53 days after tumor inoculation; NSG mice; NYZ-1010 0.01 mg/kg Days 25, 32, 39; pembrolizumab 10 mg/kg Days 28, 32, 35, 39, 42
Experimental: Tumor growth inhibition (%) was calculated according to the following equation.

[4] = test system: human esophageal cancer cell line OE-19; test: In vivo combinatorial effect of NYZ-1010 and sacituzumab govitecan-hziy, human T cell transfer model; conditions: NSG mice
Experimental: The administration was carried out on Day 7 (NYZ-1010) or on days 6 and 13 (sacituzumab govitecan-hziy). Tumor growth inhibition (%) and change from baseline (%) were calculated according to the expressions given below.

`COc1cccc2c1C(=O)c1c(O)c3c(c(O)c1C2=O)C[C@@](O)(C(=O)CO)C[C@@H]3O[C@H]1C[C@H](N)[C@H](O)[C@H](C)O1` [doxorubicin] was tested, and the “TGI (tumor growth inhibition)” value ([1]; 55 days after inoculation, NYZ-1010 0.01 mg/kg Day 41, doxorubicin 2.5 mg/kg Days 40 and 47) was 25.6% and the “Change from baseline (%)” value ([1]; group average, tumor volume on Day 55 vs Day 40 baseline) was 214.1 (n = 5) %.

For durvalumab: anti-PD-L1 antibody, the “TGI (tumor growth inhibition)” value ([2]; 49 days after inoculation, NYZ-1010 0.02 mg/kg Days 25 and 32, durvalumab 10 mg/kg intraperitoneally Days 28, 32, 35, 39) was −0.8% and the “Change from baseline (%)” value ([2]; group average, tumor volume on Day 49 vs Day 24 baseline) was 204.7 (n = 5) %.

In the case of pembrolizumab: anti-PD-1 antibody, the “TGI (tumor growth inhibition)” value [3] is reported as 3.1%.

sacituzumab govitecan-hziy was tested, and the “TGI (tumor growth inhibition)” value ([4]; 21 days after inoculation, NYZ-1010 0.01 mg/kg Day 7, sacituzumab govitecan-hziy 25 mg/kg days 6 and 13) was 35.4% and the “Change from baseline (%)” value ([4]; group average, tumor volume on Day 21 vs Day 6 baseline) was 1027.8 (n = 5) %.
